According to US11071775B2, “Combination immunotherapy for treating cancer” (H. Lee Moffitt Cancer Center and Research Institute, Inc., priority 2015, dated 2021):
Like-named read-outs stand apart in the source and are kept apart here.

Columns and labels:
MDSCs = test: ATRA in patients with metastatic renal cell carcinoma: MDSC and DC; format: in vivo, human
MDSC = test: Randomized phase II study: proportion of MDSC before and after immunization; format: in vivo, human
Protocol: To assess immune response, PBMCs were collected from patients at different time points during the treatment (FIG. 4) and kept frozen in liquid nitrogen. All samples from one patient were analyzed simultaneously to reduce inter-experimental variability. PBMCs were thawed, incubated overnight in complete medium (RPMI-1640 supplemented with antibiotics and 10% FBS) and then used in experiments. Cell viability was greater than 80%.

Gr-1+ cells [1] = details: in vitro; cited from earlier work
Gr-1+ cells [2] = details: tumor-bearing mice, cited from earlier work
human MDSCs = details: in vitro; cited from earlier work
[3] = test system: Retinoid Acid Receptor (RAR) and Retinoid X Receptor (RXR); details: cited from earlier work
ES-SCLC = test: Randomized phase II study in ES-SCLC (NCT00617409): objective response and survival; format: in vivo, human; details: arm A (observation, no vaccine)
Description: Patients with ES-SCLC were enrolled to this randomized phase II study. […] After receiving initial chemotherapy, (4-6 cycles of a standard platinum/etoposide regimen as first-line chemotherapy), patients were enrolled and randomized. Additional eligibility included; stable disease (SD) or better with Eastern Cooperative Oncology Group (ECOG) performance status of 0 to 1, and adequate organ function were screened for initial registration approximately 4-6 weeks after the completion of first-line chemotherapy. Prophylactic cranial irradiation (PCI) was permitted.
Each vaccine consisted of 2-5×10^6 Ad-p53 DCs. Cells were injected intradermally, at two-week intervals for three times (three vaccine doses). Patients were restaged approximately 2 weeks after the 3rd vaccine dose. Patients without signs of disease progression (PD) underwent a second leukapheresis and then vaccinated 3 more times at 4-week intervals. Patients on Arm C also received 150 mg/m^2 ATRA for 3 days prior to each vaccine administration (followed by vaccine administration on the next day).
All patients were followed until evidence of PD at which time they received salvage or second line chemotherapy with single agent paclitaxel (200 mg/m2 IV every 3 weeks, 4-6 cycles).
The primary objective was to evaluate the efficacy of second line paclitaxel in the two experimental regimens (Arms B and C). […]

advanced stage NSCLC = details: cited from earlier work
[4] = 38 patients; cited from earlier work
[5] = test system: PD-L1 expressing or negative tumors; details: cited from earlier work; for overall response rate (ORR): all patients
[6] = cited from earlier work

CC1=C(/C=C/C(C)=C/C=C/C(C)=C/C(=O)O)C(C)(C)CCC1 [ATRA, all-trans-retinoic acid]
MDSC/DC ratio (MDSCs): improved MDSC/DC ratio to control levels
presence of MDSC (MDSCs): significantly decreased the presence of MDSC
proportion of CD11b+CD14−CD33+ MDSC (MDSC; patients treated with ATRA (arm C), p=0.03): decreased less dramatically but also significantly
presence of Lin−HLA-DR−CD33+ MDSC (MDSC; patients treated with ATRA (arm C: vaccine plus 150 mg/m2 ATRA), p=0.02): decreased more than two-fold
differentiation and immunosuppressive effect of Gr-1+ cells (Gr-1+ cells [1]): differentiates these cells in vitro and removes their immunosuppressive effect
presence of Gr-1+ cells (Gr-1+ cells [2]; in vivo administration): dramatically reduces the presence of Gr-1^+ cells
effect of tumor vaccines (Gr-1+ cells [2]): improves the effect of tumor vaccines
fraction of MDSCs becoming DC-like (human MDSCs): ⅔
fraction of MDSCs becoming myeloid (human MDSCs): ⅓
relative affinity for RAR and RXR [3]: higher affinity to RAR

CC(=O)O[C@H]1C(=O)[C@@]2(C)[C@H]([C@H](OC(=O)c3ccccc3)[C@]3(O)C[C@H](OC(=O)[C@H](O)[C@@H](NC(=O)c4ccccc4)c4ccccc4)C(C)=C1C3(C)C)[C@]1(OC(C)=O)CO[C@@H]1C[C@@H]2O [paclitaxel]
OR to paclitaxel (or other second line treatment) (ES-SCLC): 1/11

MK-3475: humanized monoclonal antibody of the IgG4/kappa isotype blocking the interaction between PD-1 and its ligands
patients responding to therapy (advanced stage NSCLC; PD-L1 high tumors, Six of 9, 95% CI 30-93%): 67%
patients responding to therapy (advanced stage NSCLC; PD-L1 low tumors, 0/22, 95% CI 0-15%): 0%
overall objective response rate (advanced stage NSCLC; investigator-assessed irRC, 38 patients): 24%
drug-related deaths [4]: no drug-related deaths
grade 3/4 event (grade 3 pulmonary edema) [4]: one
ORR ([5]; PD-L1 expressing tumors, RECIST, (16-30%)): 23%
ORR ([5]; PD-L1 expressing tumors, irRC, 95% CI 14-26%): 19%
ORR ([5]; PD-L1 negative tumors, RECIST, (2-23%)): 9%
ORR ([5]; PD-L1 negative tumors, irRC, 95% CI 4-27%): 13%
overall response rate (ORR) ([5]; RECIST v1.1, 95% CI 15-26%): 20%
overall response rate (ORR) ([5]; irRC, 10 mg/kg Q2W or Q3W, 95% CI 13-24%): 18%
patients who developed grade 3/4 pneumonitis ([6]; 2 patients in each schedule): Four
drug-related adverse event: arthralgia ([6]; 217 patients): 6.1%
drug-related adverse event: pruritis ([6]; 217 patients): 5.4%
drug-related adverse event: pyrexia ([6]; 217 patients): 3.6%
patients with grade 3/4 drug-related adverse events ([6]; 217 patients): Six
